12 molecules from PubChem BioAssay (NCI) can be followed below.

Test systems include SW-620 colon; K-562 leukemia; LOX IMVI melanoma; A498 renal; MOLT-4 leukemia; IGROV1 ovarian; SN12C renal; U251 CNS; M14 melanoma; DU-145 prostate.
Experiment in all cases: inhibition of tumour cell growth, NCI panel, 48 h

Values joined by “and” are separate entries in the source; they are usually repeats but may differ in a detail not shown here. Equal entries are not always repeated.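 These data come from cells grown in 96-well plates and exposed to compound for 48 hours at five concentrations. GI50 is the concentration that inhibits growth by half. At the TGI there is no net growth.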

With `CC(=O)Oc1c(OC(C)=O)c(-c2ccc(O)c(O)c2)c(O)c(O)c1-c1ccc(O)cc1`, the TGI with SW-620 colon is over 100 µM; with K-562 leukemia, over 100 µM; in the test with LOX IMVI melanoma, 94 µM and 95.9 µM; with A498 renal it was over 100 µM; in the test on MOLT-4 leukemia it was over 100 µM; in the test on IGROV1 ovarian it was over 100 µM. Also, the TGI with SN12C renal and in the test with U251 CNS was over 100 µM throughout. Moreover, the results for the GI50 in the test with MOLT-4 leukemia and in the test with SN12C renal were 53.6 µM and 73.8 µM, respectively.
On to `COc1cc2c(cc1OC)C(Cl)C(c1cc(OC)c(OC)c(OC)c1)=C2Cl` (configuration not stated), for which the TGI with SW-620 colon was 46.1 µM; in the test with K-562 leukemia, over 100 µM; in the test on M14 melanoma, 35.2 µM; in the test with LOX IMVI melanoma, 30.2 µM; in the test on A498 renal, 61.1 µM; with MOLT-4 leukemia, 29.9 µM. For the same molecule, the TGI with IGROV1 ovarian stood at 54.7 µM; in the test with SN12C renal, 36.6 µM; with U251 CNS, 33 µM.
For `CSCCC(NC(c1ccccc1)c1ccccc1)[P+](=O)O` (configuration not stated), the TGI in the test with SW-620 colon, in the test with K-562 leukemia, in the test on M14 melanoma, in the test with LOX IMVI melanoma, in the test on MOLT-4 leukemia and with IGROV1 ovarian was over 100 µM throughout. In addition, the TGI in the test with SN12C renal, in the test with DU-145 prostate and in the test on U251 CNS was over 100 µM in each case.
For `Cc1ccc2[nH]c3c(C)c4ccncc4c(C)c3c2c1`, the TGI in the test with SW-620 colon was found to be 1.7 µM; with K-562 leukemia, 2.52 µM; in the test with M14 melanoma it was 3.29 µM; in the test with LOX IMVI melanoma, 4.77 µM; in the test on A498 renal, 2.91 µM; in the test on MOLT-4 leukemia, 1.95 µM. Also, the TGI with IGROV1 ovarian amounted to 2.44 µM; with SN12C renal, 2.39 µM; with U251 CNS, 2.46 µM.
On to `CC(C)(C)C=C=C(C(C)(C)C)P(=O)(O)O`, for which the TGI with SW-620 colon, with K-562 leukemia, in the test with M14 melanoma, in the test on LOX IMVI melanoma, in the test on A498 renal and in the test on IGROV1 ovarian was over 100 µM throughout. Further, the TGI in the test on SN12C renal, in the test on DU-145 prostate and in the test on U251 CNS was over 100 µM throughout.
In the case of `COc1cc(CC2c3cc(OC)c(OC)cc3CCN2C)c(Oc2cc3c(cc2OC)-c2c(OC)c(OC)c(OC)c4c2C(C3)N(C)CC4)cc1OC` (configuration not stated), the TGI in the test with SW-620 colon was 30.7 µM; with K-562 leukemia, over 30.5 µM; in the test with M14 melanoma, 5.76 µM; with LOX IMVI melanoma, 22.6 µM; with A498 renal, 28.8 µM; in the test with MOLT-4 leukemia, over 42.5 µM. The TGI in the test on IGROV1 ovarian was determined as 29.9 µM; in the test on SN12C renal, 28.6 µM; with U251 CNS, 26 µM.
In the case of `CCOC(=O)c1c(SCCO)n(-c2ccccc2)c(=S)n(-c2ccccc2)c1=O`, the TGI with SW-620 colon, with K-562 leukemia, in the test on M14 melanoma, in the test on LOX IMVI melanoma, in the test on MOLT-4 leukemia and in the test on IGROV1 ovarian was over 100 µM throughout. In addition, the TGI with SN12C renal, with DU-145 prostate and in the test with U251 CNS was over 100 µM each time.
With `CCN(CC)CCNc1ccc(C)c2sc3ccc(O)cc3c(=O)c12`, the TGI in the test on SW-620 colon was 2.38 µM; in the test on K-562 leukemia it was 3.62 µM; with M14 melanoma it was 2.48 µM; in the test on LOX IMVI melanoma, 2.18 µM; in the test on A498 renal, 4.27 µM; with MOLT-4 leukemia, 1.16 µM. Further, the TGI was found to be 5.19 µM in the test on IGROV1 ovarian, 1.85 µM in the test on SN12C renal and 2.44 µM with U251 CNS.
For the molecule `CN1OC(=O)N(C)C1c1ccccc1` (configuration not stated), the TGI in the test on SW-620 colon, in the test with K-562 leukemia, in the test with LOX IMVI melanoma, in the test with A498 renal, in the test with MOLT-4 leukemia and in the test on IGROV1 ovarian was over 100 µM each time. For the same molecule, the TGI in the test on SN12C renal and with U251 CNS was over 100 µM throughout.
In the case of `C=C1C(=O)OC2/C=C(\C)C(O)/C=C\C(C)(O)CC(OC(=O)/C(C)=C/C)C12` (configuration not stated), the TGI is 34.4 µM with SW-620 colon; over 84.6 µM with K-562 leukemia; 32.7 µM in the test on M14 melanoma; 36.6 µM in the test on LOX IMVI melanoma; over 100 µM in the test on A498 renal; 53.8 µM in the test on MOLT-4 leukemia. Moreover, the TGI with IGROV1 ovarian was over 100 µM; with SN12C renal, 53.5 µM; with U251 CNS it was over 100 µM.
Consider `Nc1ccn(C2OC(COP(=O)(O)Oc3ccccc3)C(O)C2O)c(=O)n1` (configuration not stated), for which the TGI in the test with SW-620 colon, in the test with K-562 leukemia, in the test with LOX IMVI melanoma, in the test with A498 renal, in the test with MOLT-4 leukemia and with IGROV1 ovarian was over 100 µM each time. Besides, the TGI in the test with SN12C renal and in the test with U251 CNS was over 100 µM in each case.
As to `Cc1nc(-c2nc([N+](=O)[O-])c([N+](=O)[O-])[nH]2)cs1`, the TGI in the test on SW-620 colon, in the test on K-562 leukemia, in the test on M14 melanoma, in the test on LOX IMVI melanoma, in the test with A498 renal and in the test with MOLT-4 leukemia was over 100 µM throughout. The TGI with IGROV1 ovarian, in the test with SN12C renal and with U251 CNS was over 100 µM in each case.
